US20250320206A1, “STAT6 DEGRADERS” (Gilead Sciences, Inc., priority 2024, published 2025)

system: Eotaxin-3 release in human whole blood stimulated with IL-4; test: Human Whole Blood Eotaxin-3 Assay (IL-4 stimulated eotaxin-3 release); format: cell-based; conditions: IL-4 stimulation, 48 h, values given for compounds with >80% Emax, geometric mean
Experimental: Human Whole Blood Eotaxin-3 Assay
This was a human whole blood assay using recombinant human Interleukin 4 to stimulate the blood and measuring the ability of the test compounds to inhibit eotaxin-3 release. The biological activities of the test compounds have been tested in human whole blood stimulated with IL-4 measuring Eotaxin-3 release. The test compounds were added to 384 well clear flat-bottom plate in a 4-fold serial dilution in triplicates using a liquid handler. Human whole blood stabilized in lithium-heparin tubes was added in a volume of 65 μL per well, resulting in a final DMSO concentration of 0.5%. The plate is incubated for 2 h at 37° C. under 5% CO2/95% air. Subsequently, 5 μL of recombinant human IL-4 (R&D Systems, cat #204-ILB) was added to the wells to a final concentration of […]. The plate was incubated for 48 h at 37° C. under 5% CO2/95% air. The plate was spun down for 10 minutes at 500×g and 20 μL supernatant was harvested and transferred to a 384 well v-bottom plate using a liquid handler and stored at −20° C. until further analysis. 10 μL supernatant was used to measure the level of Eotaxin-3 (CCL26) using Human Eotaxin-3 MSD kit from Mesocsale (Cat #K251UEK-4). The assay was performed according to the manufacture instructions.
The data from the human whole blood eotaxin-3 assay is shown in FIG. 2 for Examples 3u208, 3u246, 3u118, 3u119, 3u120, and 3u74 (where the effect in % is plotted against the test concentration in M on a log scale).

Point of comparison: CNc1ccn(-c2ccnc3c2cc([C@H](C)N2CC=C(c4c(C)cc(C(=O)N5CCC(CN6CCN(c7cc8c(cc7F)n(C7CCC(=O)NC7=O)c(=O)n8C)CC6)CC5)cc4F)CC2)n3C)c(=O)c1F (stereo partly drawn) [Example 3u273, 3-(6-fluoro-5-(4-((1-(3-fluoro-4-(1-((S)-1-(4-(3-fluoro-4-(methylamino)-2-oxopyridin-1 (2H)-yl)-1-methyl-1H-pyrrolo[2,3-b]pyridin-2-yl)ethyl)-1,2,3,6-tetrahydropyridin-4-yl)-5-methylbenzoyl)piperidin-4-yl)methyl)piperazin-1-yl)-3-methyl-2-oxo-2,3-dihydro-1H-benzo[d]imidazol-1-yl)piperidine-2,6-dione], EC50 31.8 nM. Against it:
- CNc1cc(=O)n(-c2ccnc3c2cc(CN2CCC(c4c(F)cc(C(=O)N5CCC(CN6CCN(c7ccc8c(c7)C7(CC7)C(=O)N8[C@H]7CCC(=O)NC7=O)CC6)CC5)cc4F)CC2)n3C)cc1F (single isomer, unassigned) [Example 3u288] — 2.8-fold higher, 88.3 nM
- CNc1ccn(-c2ccnc3c2cc([C@H](C)N2CC=C(c4c(C)cc(C(=O)N5CCC(CN6CCN(c7ccc8c(c7)C(C)(C)C(=O)N8[C@H]7CCC(=O)NC7=O)CC6)CC5)cc4F)CC2)n3C)c(=O)c1 (single isomer, unassigned) [Example 3u280] — 2.5-fold lower, 12.8 nM
- CNc1ccn(-c2ccnc3c2cc([C@H](C)N2CC=C(c4c(C)cc(C(=O)N5CCn6c(nnc6C6CCN(c7ccc8c(c7)n(C)c(=O)n8C7CCC(=O)NC7=O)CC6)C5)cc4F)CC2)n3C)c(=O)c1 (stereo partly drawn) [Example 3u260, 3-(5-(4-(7-(3-fluoro-5-methyl-4-(1-((S)-1-(1-methyl-4-(4-(methylamino)-2-oxopyridin-1 (2H)-yl)-1H-pyrrolo[2,3-b]pyridin-2-yl)ethyl)-1,2,3,6-tetrahydropyridin-4-yl)benzoyl)-5,6,7,8-tetrahydro-[1,2,4]triazolo[4,3-a]pyrazin-3-yl)piperidin-1-yl)-3-methyl-2-oxo-2,3-dihydro-1H-benzo[d]imidazol-1-yl)piperidine-2,6-dione] — 2.8-fold lower, 11.2 nM
- CNc1ccn(-c2ccnc3c2cc(CN2CCC(c4c(F)cc(C(=O)N5CCC(CN6CCN(c7ccc8c(c7)C7(CC7)C(=O)N8[C@@H]7CCC(=O)NC7=O)CC6)CC5)cc4F)CC2)n3C)c(=O)c1 (single isomer, unassigned) [Example 3u150] — within 1.5-fold, 39.2 nM
- CNc1cc(=O)n(-c2ccnc3c2cc([C@H](C)N2CC=C(c4c(C)cc(C(=O)N5CCC(O)(CC6CCN(c7ccc8c(c7)C7(CC7)C(=O)N8C7CCC(=O)NC7=O)CC6)CC5)cc4F)CC2)n3C)cc1F (stereo partly drawn) [Example 3u283, 3-(5′-(4-((1-(3-fluoro-4-(1-((S)-1-(4-(5-fluoro-4-(methylamino)-2-oxopyridin-1 (2H)-yl)-1-methyl-1H-pyrrolo[2,3-b]pyridin-2-yl)ethyl)-1,2,3,6-tetrahydropyridin-4-yl)-5-methylbenzoyl)-4-hydroxypiperidin-4-yl)methyl)piperidin-1-yl)-2′-oxospiro[cyclopropane-1,3′-indolin]-1′-yl)piperidine-2,6-dione] — 4-fold higher, 126 nM
- CNc1ccn(-c2ccnc3c2cc(CN2CCC(c4c(F)cc(C(=O)N5CCC(CN6CCN(c7cc8c(cc7F)n(C7CCC(=O)NC7=O)c(=O)n8C)CC6)CC5)cc4F)CC2)n3C)c(=O)n1 (centres unmarked) [Example 3h43, 3-(5-(4-((1-(3,5-difluoro-4-(1-((1-methyl-4-(4-(methylamino)-2-oxopyrimidin-1 (2H)-yl)-1H-pyrrolo[2,3-b]pyridin-2-yl)methyl)piperidin-4-yl)benzoyl)piperidin-4-yl)methyl)piperazin-1-yl)-6-fluoro-3-methyl-2-oxo-2,3-dihydro-1H-benzo[d]imidazol-1-yl)piperidine-2,6-dione] — 4.3-fold lower, 7.4 nM
- CNc1cc(=O)n(-c2ccnc3c2cc(CN2CCC(c4c(F)cc(C(=O)N5CCC(CN6CCN(c7ccc8c(c7)C7(CC7)C(=O)N8[C@@H]7CCC(=O)NC7=O)CC6)CC5)cc4F)CC2)n3C)cc1F (single isomer, unassigned) [Example 3u289] — 1.7-fold lower, 18.9 nM
- CNc1cc(=O)n(-c2ccnc3c2cc([C@H](C)N2CC=C(c4c(C)cc(C(=O)N5CCC(F)(CN6CCN(c7ccc8c(c7)C7(CC7)C(=O)N8C7CCC(=O)NC7=O)CC6)CC5)cc4F)CC2)n3C)cc1F (stereo partly drawn) [Example 3u136, 3-(5′-(4-((4-fluoro-1-(3-fluoro-4-(1-((S)-1-(4-(5-fluoro-4-(methylamino)-2-oxopyridin-1 (2H)-yl)-1-methyl-1H-pyrrolo[2,3-b]pyridin-2-yl)ethyl)-1,2,3,6-tetrahydropyridin-4-yl)-5-methyl-benzoyl)piperidin-4-yl)methyl)piperazin-1-yl)-2′-oxospiro[cyclopropane-1,3′-indolin]-1′-yl)piperidine-2,6-dione] — 1.9-fold lower, 16.4 nM
- CNc1cc(=O)n(-c2ccnc3c2cc([C@H](C)N2CC=C(c4c(C)cc(C(=O)N5CCC(CN6CCN(c7cc8c(cc7F)N(C7CCC(=O)NC7=O)C(=O)C87CC7)CC6)CC5)cc4F)CC2)n3C)cc1F (stereo partly drawn) [Example 3u305, 3-(6′-fluoro-5′-(4-((1-(3-fluoro-4-(1-((S)-1-(4-(5-fluoro-4-(methylamino)-2-oxopyridin-1 (2H)-yl)-1-methyl-1H-pyrrolo[2,3-b]pyridin-2-yl)ethyl)-1,2,3,6-tetrahydropyridin-4-yl)-5-methylbenzoyl)piperidin-4-yl)methyl)piperazin-1-yl)-2′-oxospiro[cyclopropane-1,3′-indolin]-1′-yl)piperidine-2,6-dione] — within 1.5-fold, 24.9 nM
- C[C@@H](c1cc2c(-n3cc(F)c4c(c3=O)CCN4)ccnc2n1C)N1CC=C(c2c(F)cc(C(=O)N3CCC(CN4CCN(Cc5ccc6c(c5)n(C)c(=O)n6C5CCC(=O)NC5=O)CC4)CC3)cc2F)CC1 (stereo partly drawn) [Example 3u83, 3-(5-((4-((1-(3,5-difluoro-4-(1-((S)-1-(4-(7-fluoro-4-oxo-1,2,3,4-tetrahydro-5H-pyrrolo[3,2-c]pyridin-5-yl)-1-methyl-1H-pyrrolo[2,3-b]pyridin-2-yl)ethyl)-1,2,3,6-tetrahydropyridin-4-yl)benzoyl)piperidin-4-yl)methyl)piperazin-1-yl)methyl)-3-methyl-2-oxo-2,3-dihydro-1H-benzo[d]-imidazol-1-yl)piperidine-2,6-dione] — 4-fold lower, 8 nM
- CNc1cc(=O)n(-c2ccnc3c2cc([C@H](C)N2CC=C(c4c(C)cc(C(=O)N5CCC(CN6CCN(Cc7ccc8c(c7)C7(CC7)C(=O)N8C7CCC(=O)NC7=O)C[C@@H]6C)CC5)cc4F)CC2)n3C)cc1OC (stereo partly drawn) [Example 3u117, 3-(5′-(((S)-4-((1-(3-fluoro-4-(1-((S)-1-(4-(5-methoxy-4-(methylamino)-2-oxopyridin-1 (2H)-yl)-1-methyl-1H-pyrrolo[2,3-b]pyridin-2-yl)ethyl)-1,2,3,6-tetrahydropyridin-4-yl)-5-methylbenzoyl)piperidin-4-yl)methyl)-3-methylpiperazin-1-yl)methyl)-2′-oxospiro[cyclopropane-1,3′-indolin]-1′-yl)piperidine-2,6-dione] — 38-fold higher, 1210 nM
- CNc1ccn(-c2ccnc3c2cc([C@H](C)N2CC=C(c4c(C)cc(C(=O)N5CCC(CN6CCN(Cc7ccc8c(c7)C7(CCOCC7)C(=O)N8C7CCC(=O)NC7=O)CC6)CC5)cc4F)CC2)n3C)c(=O)c1 (stereo partly drawn) [Example 3u257, 3-(5-((4-((1-(3-fluoro-5-methyl-4-(1-((S)-1-(1-methyl-4-(4-(methylamino)-2-oxopyridin-1 (2H)-yl)-1H-pyrrolo[2,3-b]pyridin-2-yl)ethyl)-1,2,3,6-tetrahydropyridin-4-yl)benzoyl)-piperidin-4-yl)methyl)piperazin-1-yl)methyl)-2-oxo-2′,3′,5′,6′-tetrahydrospiro[indoline-3,4′-pyran]-1-yl)piperidine-2,6-dione] — within 1.5-fold, 24.2 nM
- CNc1cc(=O)n(-c2ccnc3c2cc([C@H](C)N2CC=C(c4c(C)cc(C(=O)N5CCC(CN6CCN(c7cc8c(cc7F)N(C7CCC(=O)NC7=O)C(=O)C8(C)C)CC6)CC5)cc4F)CC2)n3C)cc1F (stereo partly drawn) [Example 3u306, 3-(6-fluoro-5-(4-((1-(3-fluoro-4-(1-((S)-1-(4-(5-fluoro-4-(methylamino)-2-oxopyridin-1 (2H)-yl)-1-methyl-1H-pyrrolo[2,3-b]pyridin-2-yl)ethyl)-1,2,3,6-tetrahydropyridin-4-yl)-5-methylbenzoyl)piperidin-4-yl)methyl)piperazin-1-yl)-3,3-dimethyl-2-oxoindolin-1-yl)piperidine-2,6-dione] — 6.1-fold higher, 194 nM
